This is an account of results in publication PMC6942878 (Analytical biochemistry, 2019).

The target in this experiment is murine double minute 2 (MDM2) (Homo sapiens, UniProt Q00987). Description: biochemical. The format is binding.
Chain of murine double minute 2 (MDM2) (Q00987 3-155): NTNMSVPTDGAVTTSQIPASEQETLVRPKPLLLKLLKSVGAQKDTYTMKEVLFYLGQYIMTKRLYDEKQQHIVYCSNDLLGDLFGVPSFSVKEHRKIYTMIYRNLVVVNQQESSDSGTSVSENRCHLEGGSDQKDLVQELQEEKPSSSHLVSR

In general, IC50 refers to the midpoint of a concentration-inhibition curve. A low value points to higher potency. The compound `CC(C)COCC(CN(Cc1ccccc1)c1ccccc1)N1CCCC1` (centres unmarked) [bepridil] gave an IC50 of 206 nM.

In the case of `CN1CCCC(n2nc(Cc3ccc(Cl)cc3)c3ccccc3c2=O)CC1` (centres unmarked) [azelastine], the IC50 was determined as 367 nM.
